The text below walks through data of PMC11093982, “Structural and mechanistic insights into Quinolone Synthase to address its functional promiscuity” (Communications Biology, 2024).

Where two headings read alike, the source gives them in different places.

The target of the assay is AmQNS (quinolone synthase) (Aegle marmelos, UniProt M1HE54). Nature of the assay: Surface plasmon resonance (SPR) AmQNS-substrate interaction studies. It counts as binding. As to conditions: for association rate constant (kon): SPR association rate; for dissociation rate constant (koff): SPR dissociation rate. An excerpt: ProteOn XPR array system[21] and ‘GLM’ sensor chip was used for the SPR interaction studies. […] Here, amine coupling works, where the amine groups present in the AmQNS covalently bind to the chemically activated carboxyl groups of the dextran molecules. Channel L3 and L4 were used for immobilization of protein while L2 was used as reference. The extent of non-specific interactions was eliminated or reduced by optimizing the buffer conditions. […] N-methylanthraniloyl-CoA was purchased from TransMIT (Plant MetaChem, www.plantmetachem.com), whereas all other substrates were purchased from Sigma-Aldrich (www.sigmaaldrich.com).
Sequence of AmQNS (quinolone synthase) (M1HE54 entry or part of it): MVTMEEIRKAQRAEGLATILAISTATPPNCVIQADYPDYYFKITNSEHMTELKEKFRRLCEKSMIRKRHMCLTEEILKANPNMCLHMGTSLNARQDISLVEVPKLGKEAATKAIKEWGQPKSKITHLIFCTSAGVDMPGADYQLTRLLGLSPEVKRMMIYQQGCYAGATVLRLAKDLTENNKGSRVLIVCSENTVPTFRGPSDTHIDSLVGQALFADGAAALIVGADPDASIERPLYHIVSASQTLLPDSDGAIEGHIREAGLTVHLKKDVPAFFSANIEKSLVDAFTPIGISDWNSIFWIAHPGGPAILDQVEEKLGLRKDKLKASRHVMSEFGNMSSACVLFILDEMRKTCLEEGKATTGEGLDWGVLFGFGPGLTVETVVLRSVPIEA
Following AmQNS immobilization and its stability screening, all binding studies were done at 30 °C. The SPR-based system measures the changes in refractive index to investigate the direct interaction between AmQNS and different CoA substrates. […] In our experiments, AmQNS was captured on the surface of the GLM sensor chip and used to screen the preferred substrates (acyl-CoA’s) in the presence and absence of malonyl-CoA. […] The sensogram was prepared by processing the data (after subtraction of L2 responses (reference channel). Baseline drift due to the bulk refractive index change, non-specific binding, matrix effects and injection noise were also corrected using the reference spots. Further, the responses obtained from the AmQNS-small molecular interactions at different concentrations were fitted using the Langmuir 1:1 biomolecular interaction model using the ProteOn Manager software version 3.1.0.6 (Bio-Rad, USA). Equilibrium dissociation constants (KD) were calculated from the ratio of the association and dissociation rates.

Setting [1] is: AmQNS immobilized on GLM chip, 30 °C, Langmuir 1:1 model.
[2] abbreviates: SPR, AmQNS immobilized on GLM chip, 30 °C, Langmuir 1:1 model, read-out: KD (KD= kd /ka).
Where [3] appears, read: SPR, AmQNS immobilized on GLM chip, 30 °C, in presence of malonyl-CoA, Langmuir 1:1 model, read-out: KD.

Turning to `CC(C)(COP(=O)(O)OP(=O)(O)OC[C@H]1O[C@@H](n2cnc3c(N)ncnc32)[C@H](O)[C@@H]1OP(=O)(O)O)[C@@H](O)C(=O)NCCC(=O)NCCSC(=O)c1ccccc1` [Benzoyl-CoA], under setting [1], the “association rate constant (kon)” value came out at 9510 M⁻¹ s⁻¹ and the “dissociation rate constant (koff)” value turned out to be 0.0267 s⁻¹. In addition, under setting [2], the Kd turned out to be 2.8 µM.

`CCCC(=O)SCCNC(=O)CCNC(=O)[C@H](O)C(C)(C)COP(=O)(O)OP(=O)(O)OC[C@H]1O[C@@H](n2cnc3c(N)ncnc32)[C@H](O)[C@@H]1OP(=O)(O)O` [Butyryl-CoA] registered a Kd of 1.37 µM. For the same molecule, under setting [1], the “association rate constant (kon)” value came to 36100 M⁻¹ s⁻¹ and the “dissociation rate constant (koff)” value was found to be 0.0495 s⁻¹.

Consider `COc1cc(/C=C/C(=O)SCCNC(=O)CCNC(=O)[C@H](O)C(C)(C)COP(=O)(O)OP(=O)(O)OC[C@H]2O[C@@H](n3cnc4c(N)ncnc43)[C@H](O)[C@@H]2OP(=O)(O)O)ccc1O` [Feruloyl-CoA], for which, under setting [1], the “association rate constant (kon)” value is 1e+08 M⁻¹ s⁻¹ and the “dissociation rate constant (koff)” value amounted to 0.983 s⁻¹. For the same molecule, under setting [3], the Kd amounted to 0.00983 µM.

Consider `CCCCCC(=O)SCCNC(=O)CCNC(=O)[C@H](O)C(C)(C)COP(=O)(O)OP(=O)(O)OC[C@H]1O[C@@H](n2cnc3c(N)ncnc32)[C@H](O)[C@@H]1OP(=O)(O)O` [Hexanoyl-CoA], for which, under setting [1], the “association rate constant (kon)” value amounted to 963000 M⁻¹ s⁻¹ and the “dissociation rate constant (koff)” value stood at 0.00703 s⁻¹. Besides, the Kd under setting [3] was 0.0073 µM.

Regarding `CC(C)(COP(=O)(O)OP(=O)(O)OC[C@H]1O[C@@H](n2cnc3c(N)ncnc32)[C@H](O)[C@@H]1OP(=O)(O)O)[C@@H](O)C(=O)NCCC(=O)NCCSC(=O)CC(=O)O` [Malonyl-CoA], under setting [1], the “association rate constant (kon)” value is 78200 M⁻¹ s⁻¹ and the “dissociation rate constant (koff)” value came to 0.0134 s⁻¹. Besides, the Kd under setting [2] worked out at 0.172 µM.

As for `CCCCCCCCCCCCCC(=O)SCCNC(=O)CCNC(=O)[C@H](O)C(C)(C)COP(=O)(O)OP(=O)(O)OC[C@H]1O[C@@H](n2cnc3c(N)ncnc32)[C@H](O)[C@@H]1OP(=O)(O)O` [Myristoyl-CoA], under setting [1], the “association rate constant (kon)” value was 13000 M⁻¹ s⁻¹ and the “dissociation rate constant (koff)” value stood at 0.00404 s⁻¹.

As to `CNc1ccccc1C(=O)SCCNC(=O)CCNC(=O)[C@H](O)C(C)(C)COP(=O)(O)OP(=O)(O)OC[C@H]1O[C@@H](n2cnc3c(N)ncnc32)[C@H](O)[C@@H]1OP(=O)(O)O` [N-methylanthraniloyl-CoA], under setting [1], the “association rate constant (kon)” value turned out to be 1e+08 M⁻¹ s⁻¹ and the “dissociation rate constant (koff)” value stood at 0.204 s⁻¹. Under setting [3], the Kd was 0.00204 µM.

Take `CCCCCCCCCCCCCCCC(=O)SCCNC(=O)CCNC(=O)[C@H](O)C(C)(C)COP(=O)(O)OP(=O)(O)OC[C@H]1O[C@@H](n2cnc3c(N)ncnc32)[C@H](O)[C@@H]1OP(=O)(O)O` [Palmitoyl-CoA]: under setting [1], the “association rate constant (kon)” value is 45800 M⁻¹ s⁻¹ and the “dissociation rate constant (koff)” value is 0.00417 s⁻¹. Also, the Kd under setting [2] was found to be 0.0911 µM.

For `COc1cc(/C=C/C(=O)SCCNC(=O)CCNC(=O)[C@H](O)C(C)(C)COP(=O)(O)OP(=O)(O)OC[C@H]2O[C@@H](n3cnc4c(N)ncnc43)[C@H](O)[C@@H]2OP(=O)(O)O)cc(OC)c1O` [Sinapoyl-CoA], under setting [1], the “association rate constant (kon)” value stood at 141000 M⁻¹ s⁻¹ and the “dissociation rate constant (koff)” value came out at 0.0163 s⁻¹. Under setting [2], the Kd came out at 0.116 µM.

Consider `CCCCCCCCCCCCCCCCCC(=O)SCCNC(=O)CCNC(=O)[C@H](O)C(C)(C)COP(=O)(O)OP(=O)(O)OC[C@H]1O[C@@H](n2cnc3c(N)ncnc32)[C@H](O)[C@@H]1OP(=O)(O)O` [Stearoyl-CoA], for which, under setting [1], the “association rate constant (kon)” value is 11700 M⁻¹ s⁻¹ and the “dissociation rate constant (koff)” value came out at 0.00193 s⁻¹. Also, the Kd under setting [2] came out at 0.164 µM.

Regarding `CC(C)(COP(=O)(O)OP(=O)(O)OC[C@H]1O[C@@H](n2cnc3c(N)ncnc32)[C@H](O)[C@@H]1OP(=O)(O)O)[C@@H](O)C(=O)NCCC(=O)NCCSC(=O)/C=C/c1ccc(O)cc1` [p-coumaroyl CoA], under setting [1], the “association rate constant (kon)” value worked out at 591000 M⁻¹ s⁻¹ and the “dissociation rate constant (koff)” value is 0.0595 s⁻¹. Moreover, the Kd under setting [2] was determined as 0.101 µM.
